According to publication PMC4491112 (Cancer chemotherapy and pharmacology, 2011):
Entries after “also recorded” stand apart in the source; their conditions may differ. Like-named read-outs stand apart in the source and are kept apart here. Blank lines part the entries; values can stand above or below the molecule they belong to.

Experiments:
[1] = type: in vivo, human; details: 20 mg oral
[2] = Adverse events and ECG; type: in vivo, human
[3] = Adverse events, laboratory abnormalities and ECG; type: in vivo, human; details: continual treatment phase, 45 mg
[4] = system: advanced solid tumors; assay: Tumor response by RECIST version 1.0; type: in vivo, human
[5] = fasting state, two other phase 1 studies, CV 56%; cited from earlier work
[6] = highly soluble, highly permeable class; cited from earlier work
[7] = administered on days 1 and 4 of a weekly schedule; cited from earlier work
[8] = high-fat breakfast vs fasting, P < 0.001; cited from earlier work
[9] = 20 mg, all patients (n = 36), any grade
[10] = 20 mg, high-fat breakfast (n = 36), any grade
[11] = 20 mg, high-fat breakfast, any grade
[12] = 20 mg, normal breakfast (n = 34), any grade
[13] = 20 mg, normal breakfast, any grade
[14] = 20 mg, overnight fast (n = 34), any grade
[15] = food-effect phase, 20 mg, N = 36, Grade 3/4, regardless of study drug relationship
[16] = food-effect phase, 20 mg, N = 36, any grade, regardless of study drug relationship
[17] = food-effect phase, 20 mg, any grade
[18] = N = 29, Grade 3/4, regardless of study drug relationship
[19] = N = 29, any grade, regardless of study drug relationship

effect of prandial state on mean elimination half-life ([1]; fasting vs high-fat vs normal breakfast): not altered; also recorded: unaltered | reduction of systemic exposure following food ([1]; food vs fasting): 14–16% | interpatient variability of exposure (coefficient of variation) ([1]; with or without food): 59% | Cmax reduction ([1]; high-fat breakfast vs fasting): 44% | Tmax, median difference (range) ([1]; high-fat breakfast/fasting): 2.48 (–2.00 to 7.02) h | AUC(0-inf) ([1]; human, plasma, po, 20 mg, AUC0–∞, mean (CV, %), fasting (n = 33)): 176 ng·h/mL | Cmax ([1]; human, plasma, po, 20 mg, Cmax, mean (CV, %), fasting (n = 33)): 23 ng/mL | Tmax ([1]; human, plasma, po, 20 mg, Tmax, median (range), fasting (n = 33)): 1.5 h | half-life ([1]; human, plasma, po, 20 mg, t1/2, mean (CV, %), fasting (n = 33)): 870 min | Cmax reduction ([1]; normal breakfast vs fasting): 36% | Tmax, median difference (range) ([1]; normal breakfast/fasting): 1.45 (–2.50 to 2.02) h
SMILES: Cc1[nH]c2ccccc2c1CCNCc1ccc(/C=C/C(=O)NO)cc1 [panobinostat, Panobinostat]
Panobinostat-related fatigue [2, 9]: 16 (44.4) n (%) | Panobinostat-related nausea [2, 9]: 11 (30.6) n (%) | Panobinostat-related vomiting [2, 9]: 7 (19.4) n (%) | drug-related diarrhea, frequency ([2]; 20 mg, fasting, any grade): 5.9% | drug-related nausea, frequency ([2]; 20 mg, fasting, any grade): 14.7% | drug-related vomiting, frequency ([2]; 20 mg, fasting, any grade): 14.7% | Panobinostat-related fatigue [2, 10]: 5 (13.9) n (%) | Panobinostat-related nausea [2, 10]: 3 (8.3) n (%) | Panobinostat-related vomiting [2, 10]: 1 (2.8) n (%) | drug-related diarrhea, frequency [2, 11]: 0% | drug-related fatigue, frequency [2, 11]: 13.9% | drug-related nausea, frequency [2, 11]: 8.3% | drug-related vomiting, frequency [2, 11]: 2.8% | Panobinostat-related fatigue [2, 12]: 10 (29.4) n (%) | Panobinostat-related nausea [2, 12]: 8 (23.5) n (%) | Panobinostat-related vomiting [2, 12]: 5 (14.7) n (%) | drug-related diarrhea, frequency [2, 13]: 8.8% | drug-related fatigue, frequency [2, 13]: 29.4% | drug-related nausea, frequency [2, 13]: 23.5% | drug-related vomiting, frequency [2, 13]: 14.7% | Panobinostat-related fatigue [2, 14]: 1 (2.9) n (%) | Panobinostat-related nausea [2, 14]: 5 (14.7) n (%) | Panobinostat-related vomiting [2, 14]: 5 (14.7) n (%) | drug-related fatigue, frequency ([2]; 20 mg, overnight fast, any grade): 2.9% | patients with SAEs ([2]; food-effect phase, 20 mg): seven | reported grade 3 or 4 AEs ([2]; food-effect phase, 20 mg): eight | QTcF >480 ms or >60 ms increase from baseline ([2]; food-effect phase, 20 mg, 12-lead ECG): no QTcF >480 ms or >60 ms increase from baseline was observed | Abdominal pain [2, 15]: 0 (0) n (%) | Constipation [2, 15]: 0 (0) n (%) | Diarrhea [2, 15]: 1 (2.8) n (%) | Fatigue [2, 15]: 3 (8.3) n (%) | Headache [2, 15]: 0 (0) n (%) | Nausea [2, 15]: 2 (5.6) n (%) | Pyrexia [2, 15]: 0 (0) n (%) | Thrombocytopenia [2, 15]: 0 (0) n (%) | Total adverse events [2, 15]: 8 (22.2) n (%) | Vomiting [2, 15]: 2 (5.6) n (%) | Abdominal pain [2, 16]: 5 (13.9) n (%) | Constipation [2, 16]: 7 (19.4) n (%) | Diarrhea [2, 16]: 7 (19.4) n (%) | Fatigue [2, 16]: 18 (50.0) n (%) | Headache [2, 16]: 6 (16.7) n (%) | Nausea [2, 16]: 15 (41.7) n (%) | Pyrexia [2, 16]: 5 (13.9) n (%) | Thrombocytopenia [2, 16]: 5 (13.9) n (%) | Total adverse events [2, 16]: 34 (94.4) n (%) | Vomiting [2, 16]: 10 (27.8) n (%) | Fatigue, frequency [2, 17]: 50% | Nausea, frequency [2, 17]: 41.7% | Thrombocytopenia, frequency [2, 17]: 13.9% | Vomiting, frequency [2, 17]: 27.8% | study-drug related SAEs ([2]; food-effect phase, 20 mg, grade 3 fatigue and grade 3 vomiting): two | patients discontinued due to adverse events ([2]; food-effect phase, grade 3 fatigue and nausea/vomiting following a normal breakfast): one | Fatigue, overall frequency [3]: 48.3% | Nausea, overall frequency [3]: 37% | Vomiting, overall frequency [3]: 31.0% | frequency of grade 3 and 4 AEs [3]: 65.5% | grade 3/4 biochemical abnormality: hypophosphatemia [3]: 10.3% | grade 3/4 newly occurring or worsened hematologic laboratory abnormality: decreased platelet count [3]: 44.8% | Abdominal pain [3, 18]: 1 (3.4) n (%) | Anemia [3, 18]: 1 (3.4) n (%) | Anorexia [3, 18]: 0 (0.0) n (%) | Constipation [3, 18]: 0 (0.0) n (%) | Decreased platelet count [3, 18]: 3 (10.3) n (%) | Diarrhea [3, 18]: 1 (3.4) n (%) | Dyspnea [3, 18]: 0 (0.0) n (%) | Fatigue [3, 18]: 5 (17.2) n (%) | Headache [3, 18]: 0 (0.0) n (%) | Nausea [3, 18]: 1 (3.4) n (%) | Pyrexia [3, 18]: 0 (0.0) n (%) | Thrombocytopenia [3, 18]: 11 (37.9) n (%) | Total adverse events [3, 18]: 19 (65.5) n (%) | Vomiting [3, 18]: 2 (6.9) n (%) | Abdominal pain [3, 19]: 6 (20.7) n (%) | Anemia [3, 19]: 5 (17.2) n (%) | Anorexia [3, 19]: 10 (34.5) n (%) | Constipation [3, 19]: 3 (10.3) n (%) | Decreased platelet count [3, 19]: 6 (20.7) n (%) | Diarrhea [3, 19]: 8 (27.6) n (%) | Dyspnea [3, 19]: 7 (24.1) n (%) | Fatigue [3, 19]: 14 (48.3) n (%) | Headache [3, 19]: 5 (17.2) n (%) | Nausea [3, 19]: 11 (37.9) n (%) | Pyrexia [3, 19]: 3 (10.3) n (%) | Thrombocytopenia [3, 19]: 15 (51.7) n (%) | Total adverse events [3, 19]: 26 (89.7) n (%) | Vomiting [3, 19]: 9 (31.0) n (%) | Thrombocytopenia, frequency ([3]; any grade): 51.7% | Thrombocytopenia, frequency ([3]; grade 3/4): 37.9% | patients with QTc-interval abnormalities ([3]; QTcF >500 ms and/or increase >60 ms from baseline): two | progressive disease, share of patients ([4]; N = 36, RECIST): 58.3% | partial response, share of patients ([4]; N = 36, best response, RECIST): 2.8% | stable disease, share of patients ([4]; N = 36, best response, RECIST): 16.7% | mean AUC0–∞ [5]: 183 ng·h/mL | Biopharmaceutics Classification System class [6]: Class I like | accumulation [7]: did not accumulate

SMILES: O=C(CCCCCCC(=O)Nc1ccccc1)NO [vorinostat]
delay in Tmax by food [8]: 2.5 h
